Results on 60 compounds are retold here after patent US11077120B2, “Prostaglandin receptor EP2 antagonists, derivatives, compositions, and uses related thereto” (Emory University, priority 2014, dated 2021).

T1 sequence (P43116 whole entry): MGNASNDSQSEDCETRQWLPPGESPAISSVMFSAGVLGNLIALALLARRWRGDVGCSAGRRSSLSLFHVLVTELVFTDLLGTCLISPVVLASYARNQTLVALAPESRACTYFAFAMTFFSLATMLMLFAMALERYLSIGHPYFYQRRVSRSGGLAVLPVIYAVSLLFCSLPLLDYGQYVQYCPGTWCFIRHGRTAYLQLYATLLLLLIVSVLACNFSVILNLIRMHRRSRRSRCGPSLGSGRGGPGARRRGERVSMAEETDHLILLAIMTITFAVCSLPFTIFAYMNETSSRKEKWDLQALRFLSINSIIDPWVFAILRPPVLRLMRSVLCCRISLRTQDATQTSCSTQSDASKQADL

The first assay has as its target T1, human EP2 receptors (Homo sapiens, UniProt P43116).
T1 construct: expressed in transfected cells
Briefly: cell-based cAMP TR-FRET assay, rightward shift of PGE2 concentration response curve (Schild KB), EP2. Particulars: Table 1; Schild KB from single antagonist concentration 1 μM; average of 2-3 measurements in duplicate; read-out: EP2 KB. As to the method: KB value indicates the antagonist concentration required for a twofold rightward shift in the PGE2 dose-response curve. Thus, a lower KB value indicates a higher inhibitory potency.
The synthesis was carried out starting from commercially available 2-methyl indole or 2-trifluoromethyl indoles (11a-c), which on treatment with bromoacetonitrile provided intermediates (12a-c), which then were subjected to lithium aluminum hydride to reduce cyanide to amines. […] Synthesized derivatives were tested by using a cAMP-derived TR-FRET assay, at single concentration (1 μM) to observe a rightward shift of PGE2 (an EP2 agonist) concentration response curve in a C6G cell line that overexpresses human EP2 receptors.
A lower KB value indicates a higher inhibitory potency.
Intracellular cAMP was measured with a cell-based homogeneous time-resolved fluorescence resonance energy transfer (TR-FRET) method (Cisbio Bioassays). […] Endogenous cAMP produced by cells competes with labeled cAMP for binding to the cAMP antibody and thus reduces the FRET signal. Cells stably expressing human DP1, EP2, EP4, or IP receptors were seeded into 384-well plates in 30 μl complete medium (4,000 cells/well) and grown overnight. The medium was carefully withdrawn and 10 μl Hanks' Buffered Salt Solution (HBSS) (Hyclone) containing 20 μM rolipram was added into the wells to block phosphodiesterases. The cells were incubated at room temperature for 0.5-1 h and then treated with vehicle or test compound for 10 min before addition of increasing concentrations of appropriate agonist: BW245C for DP1, PGE2 for EP2 and EP4, or iloprost for IP. The cells were incubated at room temperature for 40 min, then lysed in 10 μl lysis buffer containing the FRET acceptor cAMP-d2 and 1 min later another 10 μl lysis buffer with anti-cAMP-Cryptate was added. After 60-90 min incubation at room temperature, the FRET signal was measured by an Envision 2103 Multilabel Plate Reader (PerkinElmer Life Sciences) with a laser excitation at 337 nm and dual emissions at 665 nm and 590 nm for d2 and Cryptate (50 s delay), respectively. The FRET signal was expressed as: F665/F590×10^4.
A general note: TR-FRET usually uses a lanthanide donor and a delayed reading to cut background.
With `Cc1cc2cc(F)ccc2n1CCNC(=O)c1ccc(N2CCN(C)CC2)c(F)c1` [Compound 8s], the Kb was 62.2 nM.
As to `Cc1cc2ccccc2n1CCNC(=O)c1ccc(N2CCCN(C)CC2)cc1` [Compound 7v], the Kb was 148 nM.
Regarding `Cc1cc2ccccc2n1CCNC(=O)c1ccc(N(C)C)c(F)c1` [Compound 7a], the Kb is 18.1 nM.
On the same count and under the same terms, the same measure for `CCNc1ccc(C(=O)NCCn2c(C)cc3ccccc32)cc1` [Compound 6d]: 15.5 nM.
Still for that read-out and setting: the same measure for `CC(=O)Oc1ccc(C(=O)NCCn2c(C)cc3ccccc32)cc1` [Compound 6m]: 150 nM; for `Cc1cc2ccccc2n1CCNC(=O)c1ccc(NC(=O)c2ccccc2F)cc1` [Compound 6o]: 51 nM.
The same measure, in the same setting: the same measure for `Cc1cc2cc(F)ccc2n1CCNC(=O)c1ccc(N2CCOCC2)cc1` [Compound 8r]: 14.9 nM; for `Cc1cc2ccccc2n1CCNC(=O)c1ccc(C2CCCNC2)cc1` (stereo not drawn) [Compound 8h]: greater than 1000 nM; for `CCOC(=O)C1CCN(c2ccc(C(=O)NCCn3c(C)cc4ccccc43)cc2)CC1` [Compound 7m]: 500 nM.
On to `Cc1cc2ccccc2n1CCNC(=O)c1ccc(O)cc1` [Compound 6j], for which the Kb was greater than 1000 nM.
Same read-out and setting: the same measure for `Cc1[nH]c2ccccc2c1CCNC(=O)c1ccc(N2CCCCC2)cc1` [Compound 9b]: 19.8 nM; for `CCN(CC)c1ccc(C(=O)NCCn2c(C(F)(F)F)cc3ccccc32)cc1` [Compound 8t]: 150 nM.
As to `CCCCN(CCCC)c1ccc(C(=O)NCCn2c(C)cc3ccccc32)cc1` [Compound 6h], the Kb came to 68.8 nM.
On to `Cc1cc2ccccc2n1CCNC(=O)c1ccc(C(=O)N(C)C)cc1` [Compound 6q], for which the Kb is greater than 1000 nM.
Take `Cc1cc2ccccc2n1CCNC(=O)c1ccc(C2CCCCC2)cc1` [Compound 8b]: the Kb came to 120 nM.
With `Cc1cc2ccccc2n1CCNC(=O)c1ccc(CN2CCOCC2)cc1` [Compound 8j], the Kb was found to be 970 nM.
Still for that read-out and setting: in the case of `CCN(CC)c1ccc(C(=O)NCCn2cnc3ccccc32)cc1` [Compound 8w] it was greater than 1000 nM; in that of `CC(=O)N1CCN(c2ccc(C(=O)NCCn3c(C)cc4ccccc43)cc2)CC1` [Compound 8d], 50.2 nM; in that of `Cc1cc2ccccc2n1CCNC(=O)c1cnc(N)nc1` [Compound 8l], greater than 1000 nM.
As to `CCN(CC)c1ccc(C(=O)NCCn2c(C)cc3ccccc32)cc1C(F)(F)F` [Compound 7e], the Kb is 310 nM.
For the compound `CCNc1ncc(C(=O)NCCc2c(C)[nH]c3ccccc23)cn1` [Compound 9f], the Kb came out at 155 nM.
Take `Cc1[nH]c2ccccc2c1CCNC(=O)c1ccc(N2CCN(C)CC2)cc1` [Compound 9e]: the Kb is 135 nM.
Consider `Cc1cc2ccccc2n1CCNC(=O)c1ccc(S(N)(=O)=O)cc1` [Compound 6v], for which the Kb was determined as 486 nM.
For the compound `CCN(CC)C(=O)c1ccc(C(=O)NCCn2c(C)cc3ccccc32)cc1` [Compound 6r], the Kb came to 800 nM.
Turning to `Cc1cc2ccccc2n1CCNC(=O)c1ccc(CNC(=O)OC(C)(C)C)cc1` [Compound 6x], the Kb was found to be 84 nM.
Turning to `Cc1cc2ccccc2n1CCNC(=O)c1ccc(-n2nn[nH]c2=S)cc1` [Compound 7y], the Kb was found to be 32.2 nM.
On to `Cc1cc2ccccc2n1CCNC(=O)c1ccc(OC2CCNCC2)cc1` [Compound 8i], for which the Kb is greater than 1000 nM.
On to `CCN(CC)C(=O)c1ccc(C(=O)NCCc2c(C)[nH]c3ccccc23)cc1` [Compound 8y], for which the Kb was greater than 1000 nM.
As to `Cc1cc2ccccc2n1CCNC(=O)c1ccc(C(=O)OC(C)(C)C)cc1` [Compound 6t], the Kb came out at 100 nM.
Regarding `Cc1cc2ccccc2n1CCNC(=O)c1cccc(N2CCN(C)CC2)c1` [Compound 7r], the Kb came to 770 nM.
Same read-out and setting: the same measure for `Cc1cc2ccccc2n1CCNC(=O)c1ccc(CCN)cc1` [Compound 6z]: 1220 nM; for `Cc1cc2ccccc2n1CCNC(=O)c1ccc(C#N)c(F)c1` [Compound 7h]: 140 nM; for `Cc1[nH]c2ccccc2c1CCNC(=O)c1cnc(N2CCOCC2)nc1` [Compound 9g]: 280 nM.
Take `CCN(CC)c1ccc(C(=O)NCCn2c(C)cc3ccccc32)cc1OC` [Compound 7g]: the Kb was found to be 61.2 nM.
Consider `CC(=O)Nc1ccc(C(=O)NCCn2c(C)cc3ccccc32)cc1` [Compound 6n], for which the Kb came to 97 nM.
Turning to `Cc1cc2ccccc2n1CCNC(=O)c1ccc(CN)cc1` [Compound 6y], the Kb is 690 nM.
`Cc1cc2ccccc2n1CCNC(=O)c1ccc(N2CCNCC2)cc1` [Compound 8c]: the Kb is 410 nM.
Turning to `Cc1cc2ccccc2n1CCNC(=O)c1nc2cc(F)ccc2[nH]1` [Compound 9h], the Kb was 130 nM.
Consider `Cc1cc2ccccc2n1CCNC(=O)c1ccc2[nH]nnc2c1` [Compound 8e], for which the Kb came to 87.5 nM.
As to `Cc1cc2ccccc2n1CCNC(=O)c1ccc2[nH]c(=S)[nH]c(=O)c2c1` [Compound 8f], the Kb was 84.1 nM.
In the case of `COc1ccc(C(=O)NCCn2c(C)cc3ccccc32)cc1` [Compound 6c], the Kb was found to be 75.6 nM.
With `Cc1cc2ccccc2n1CCNC(=O)C1CCC(c2ncccn2)CC1` (stereo not drawn) [Compound 8q], the Kb was determined as 380 nM.
Turning to `CC(=O)Nc1ccc(C(=O)NCCn2c(C)cc3ccccc32)cc1F` [Compound 7b], the Kb was determined as 530 nM.
On the same count and under the same terms, in the case of `Cc1cc2ccccc2n1CCNC(=O)c1cccc(N2CCOCC2)c1` [Compound 7s] it was greater than 1000 nM; in that of `Cc1cc2ccccc2n1CCNC(=O)c1ccc(-n2cnnn2)cc1` [Compound 7x], 42.2 nM.
Turning to `COc1ccc(C(=O)NCCn2c(C)cc3ccccc32)cc1F` [Compound 7c], the Kb came out at 86.8 nM.
The same measure, in the same setting: the same measure for `CCN(CC)c1ccc(C(=O)NCCn2c(C)cc3ccccc32)cc1F` [Compound 7d]: 4.6 nM.
Still for that read-out and setting: the same measure for `Cc1[nH]c2ccccc2c1CCNC(=O)c1ccc(N2CCOCC2)c(F)c1` [Compound 9d]: 66 nM; for `Cc1cc2ccccc2n1CCNC(=O)c1cccnc1N` [Compound 8p]: 520 nM.
Turning to `Cc1cc2ccccc2n1CCNC(=O)c1ccc(C#N)cc1F` [Compound 7i], the Kb came to 280 nM.
On the same count and under the same terms, in the case of `Cc1cc2ccccc2n1CCNC(=O)c1ccc(C2CCCN(C(=O)OC(C)(C)C)C2)cc1` (stereo not drawn) [Compound 8g] it was 95 nM.

The same assay, now with this note: Table 3; Schild KB from single concentration 1 μM; read-out: EP2 KB.
On to `COc1cc(/C=C/C(=O)N2CCC(c3c(C)[nH]c4ccccc34)C2)cc(OC)c1OC` (stereo not drawn) [Compound 16o], for which the Kb was greater than 1000 nM.
Still for that read-out and setting: the same measure for `COc1cc(/C=C/C(=O)N2CCCC(c3c(C)[nH]c4ccccc34)C2)cc(OC)c1OC` (stereo not drawn) [Compound 16n]: greater than 1000 nM.

The same assay, now with this note: Table 6.
Regarding `Cc1nc2ccccc2c(C(=O)NCCn2c(C)cc3ccccc32)c1O` [TG7-276], the “EP2 KB” value was “Inactive”.
In the case of `Cc1cc2ccccc2n1CCNC(=O)c1ccc(OCCN(C)C)c(OCCN(C)C)c1` [TG8-76-2], the “EP2 KB” value is given as “Inactive”.

The same assay, now with this note: Table 6; read-out: EP2 KB.
Regarding `Cc1ccc2c(O)c(C(=O)NCCn3c(C)cc4ccccc43)cnc2n1` [TG7-275], the Kb came out at 1810 nM.
Same read-out and setting: in the case of `COc1cc(C(=O)NCCn2c(C)cc3ccccc32)ccc1OCCN(C)C` [TG8-75] it was 1000 nM; in that of `O=C(NCCn1c(C(F)(F)F)cc2ccccc21)c1cc(-c2ccc(F)cc2)n[nH]1` [TG7-266], 8800 nM.
Still for that read-out and setting: in the case of `Cc1cc(C(=O)NCCn2c(C)cc3ccccc32)n(Cc2ccccc2)n1` [TG7-274] it was 1330 nM.

The assay is the same for the next values; noted with them: read-out: EP2 KB.
`Cc1cc2ccccc2n1CCNC(=O)c1cccc(S(N)(=O)=O)c1` [Compound 6w]: the Kb is greater than 1000 nM.
